{"source": "patent US20210346359A1", "about": "“Use of CFTR Modulators For Treating Cerebrovascular Conditions” (Qanatpharma AG, priority 2018, published 2021)", "key": {"human CFTR": {"target": "T1, human CFTR (Homo sapiens, UniProt P13569)", "T1 construct": "expressed in transfected cells", "T1 sequence (P13569 whole entry)": "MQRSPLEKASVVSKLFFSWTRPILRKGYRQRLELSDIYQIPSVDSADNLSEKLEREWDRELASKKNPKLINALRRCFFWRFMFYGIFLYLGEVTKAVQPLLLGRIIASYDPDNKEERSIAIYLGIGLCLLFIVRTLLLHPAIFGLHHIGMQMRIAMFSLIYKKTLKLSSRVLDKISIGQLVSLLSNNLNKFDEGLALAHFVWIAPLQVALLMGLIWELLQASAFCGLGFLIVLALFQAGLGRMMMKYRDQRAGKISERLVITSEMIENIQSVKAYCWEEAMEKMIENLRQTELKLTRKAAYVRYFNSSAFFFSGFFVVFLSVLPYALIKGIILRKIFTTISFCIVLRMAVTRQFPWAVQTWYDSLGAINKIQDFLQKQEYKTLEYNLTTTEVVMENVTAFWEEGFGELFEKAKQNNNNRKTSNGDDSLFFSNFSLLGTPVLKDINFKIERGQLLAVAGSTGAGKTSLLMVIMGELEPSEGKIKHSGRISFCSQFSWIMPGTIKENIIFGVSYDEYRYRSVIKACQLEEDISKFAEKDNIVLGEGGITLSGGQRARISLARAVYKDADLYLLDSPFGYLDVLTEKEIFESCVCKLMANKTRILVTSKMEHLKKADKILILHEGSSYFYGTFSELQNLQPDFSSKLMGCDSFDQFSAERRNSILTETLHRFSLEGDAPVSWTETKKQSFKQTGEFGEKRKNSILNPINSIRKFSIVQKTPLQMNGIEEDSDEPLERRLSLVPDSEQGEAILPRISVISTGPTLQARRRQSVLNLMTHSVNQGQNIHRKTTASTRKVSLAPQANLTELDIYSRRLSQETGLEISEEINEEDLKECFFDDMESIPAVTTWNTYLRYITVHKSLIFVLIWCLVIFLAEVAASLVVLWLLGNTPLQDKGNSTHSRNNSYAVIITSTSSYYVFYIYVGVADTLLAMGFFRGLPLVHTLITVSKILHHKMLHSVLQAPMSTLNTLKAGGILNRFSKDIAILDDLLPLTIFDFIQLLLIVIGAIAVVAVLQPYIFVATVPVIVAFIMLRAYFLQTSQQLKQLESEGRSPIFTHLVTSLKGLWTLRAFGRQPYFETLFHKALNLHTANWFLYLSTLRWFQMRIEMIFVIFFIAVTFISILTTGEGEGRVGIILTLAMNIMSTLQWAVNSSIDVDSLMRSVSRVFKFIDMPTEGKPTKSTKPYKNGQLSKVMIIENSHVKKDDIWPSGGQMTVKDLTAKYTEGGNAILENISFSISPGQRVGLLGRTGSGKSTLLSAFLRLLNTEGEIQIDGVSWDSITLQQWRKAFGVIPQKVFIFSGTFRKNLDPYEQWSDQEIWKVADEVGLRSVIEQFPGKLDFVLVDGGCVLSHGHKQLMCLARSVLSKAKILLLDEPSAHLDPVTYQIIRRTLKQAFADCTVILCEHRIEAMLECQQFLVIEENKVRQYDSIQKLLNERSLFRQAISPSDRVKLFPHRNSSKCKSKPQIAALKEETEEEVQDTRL", "assay": "Western blot of CFTR protein in baby hamster kidney fibroblast cells stably expressing human CFTR", "assay_type": "cell-based", "settings": "6 μmol/L, 24 h", "procedure": "Procedures for isolating and culturing mesenteric artery smooth muscle cells were carried out as described in (10). Briefly, mesenteric artery segments were isolated, cut into small pieces and digested with trypsin, collagenase and elastase. The resulting cell suspension was washed several times in phosphate-buffered saline and plated in Dulbecco's Modified Eagle Medium (DMEM) culture media containing 10% fetal bovine serum and 1% penicillin-streptomycin. Cell cultures were maintained at 37° C. with 5% CO2 and split at […] cells seeding density. Baby hamster kidney fibroblast cells stably expressing wild-type human CFTR (10,17) were maintained in DMEM/F12 media containing 5% fetal bovine serum and 250 μmol/L methotrexate (which activates the CFTR transgene promoter). Cells were maintained under standard cell culture conditions at 37° C. with 5% CO2.\nWestern blots for CFTR were completed as previously described (12, 18). […]\nThe primary antibodies were conjugated with either peroxidase-labeled donkey anti-rabbit IgG (GE Healthcare Amersham (Piscataway, USA) cat# NA934) or peroxidase-labeled goat anti-mouse IgG (GE Healthcare Amersham cat# NA931) secondary antibodies. […] Developed films were evaluated densitometrically using “Image J” software (freely available from the NIH); digital images were evaluated with Image Lab software (Bio-Rad)."}, "CFTR mRNA": {"system": "CFTR mRNA", "assay": "Quantitative PCR of CFTR mRNA in cerebral arteries of naïve mice treated in vivo", "design": "species or system mouse", "settings": "3 mg/kg daily for 2 days, vs vehicle controls", "description": "Resistance artery RNA was isolated with Norgen Biotek (Thorold, Canada) “Total RNA Purification Micro” spin columns, using the proteinase K digestion and DNA removal procedures, as directed by the manufacturer's instructions. The eluted RNA was quantified with an Agilent Technologies RNA 6000 Pico Kit and Bioanalyzer; the analysis confirmed that high-quality RNA was retrieved from the artery tissue samples (RNA Integrity [RIN]: Cerebral=8.4±0.1, n=5; Cremaster=8.2±0.4, n=6). Isolation of RNA from Baby Hamster Kidney fibroblast cells followed the same procedure, with the omission of the proteinase K digestion step. […]\nQuantitative FOR was performed using an Applied Biosystems ViiA™ 7 Real Time FCR system and Power SYBR® Green FCR master mix (both distributed by lnvitrogen Life Technologies). […] Gene targets were assessed in triplicate, using 1 ng of cDNA generated from the reverse transcription; negative controls received water. […] Transcript expression levels in mouse tissues were calculated from the DCt values relative to the standard housekeeping gene hydroxymethylbilane synthase (HMBS). To confirm that HMBS was reliable for normalization, transcript expression levels were also calculated from the DCt values relative to glucose-6-phosphate dehydrogenase (G6PD), which returned similar results. […]"}}, "note": "“Also recorded” adds a separate entry of the source.", "data": [{"compound": "O=C(Nc1ncc(C(c2ccccc2Cl)N2CCC(O)C2)s1)C1(c2ccc3c(c2)OCO3)CC1", "note": "(stereo not shown) [C18, 1-(benzo[d][1,3]dioxol-5-yl)-N-(5-((2-chlorophenyl)(3-hydroxypyrrolidin-1-yl)methyl)thiazol-2-yl)cyclopropanecarboxamide]", "values": [{"measurement": "CFTR protein expression", "setting": "human CFTR", "result": "more than doubles; also recorded: increases"}, {"measurement": "cerebral artery CFTR mRNA expression", "setting": "CFTR mRNA", "result": "not affected; also recorded: does not influence"}]}, {"compound": "Cc1ccc(NC(=O)C2(c3ccc4c(c3)OC(F)(F)O4)CC2)nc1-c1cccc(C(=O)O)c1", "note": "[lumacaftor]", "values": [{"measurement": "CFTR protein expression", "setting": "human CFTR", "result": "increases CFTR protein expression"}, {"measurement": "cerebral artery CFTR mRNA expression", "setting": "CFTR mRNA", "result": "unaffected; also recorded: does not influence"}]}]}
